≈ marks a conversion by molar mass, not a printed value. Where two headings read alike, the source gives them in different places.
How the values were obtained:
[1] = tested on: Trichophyton interdigitale; assay: Antimicrobial activity (MIC), Trichophyton interdigitale; type: cell-based; conditions: Mold: Ti, MIC refers to lethal concentrations
[2] = tested on: Malassezia pachydermatis; assay: Antimicrobial activity (MIC), Malassezia pachydermatis; type: cell-based; conditions: Fungi: Mp, MIC refers to lethal concentrations
[3] = tested on: Haemophilus influenza; assay: Antimicrobial activity (MIC), Haemophilus influenza; type: cell-based; conditions: Bacteria: Hi, MIC refers to lethal concentrations
[4] = tested on: Candida albicans; assay: Antimicrobial activity (MIC), Candida albicans; type: cell-based; conditions: Fungi: Ca, MIC refers to lethal concentrations
[5] = tested on: Streptococcus pneumoniae; assay: Antimicrobial activity (MIC), Streptococcus pneumoniae; type: cell-based; conditions: Bacteria: Sp, MIC refers to lethal concentrations
[6] = tested on: IL-4; assay: PHA-induced release of IL-4 from human buffy coats; type: cell-based; conditions: PHA 5 μg/ml, 16 hours, inhibition
Description: (§1) The study was conducted in two phases. The first phase included optimization of the test methodology and included also dose-range finding studies, using buffy coats from 3 human donors, stimulated with phytohemagglutinin (PHA). The concentrations of the test article and the duration of exposure were optimized to obtain acceptable dose-response ratios. Following optimization of the test conditions, a final protocol was issued. In the Main Study, buffy coats from 5 healthy human male donors were stimulated with PHA, 5 μg/ml.
(§2) The inhibitory effects of three concentrations of NK and one concentration of ketotifen were evaluated in the Main Study. The buffy coats were resuspended in assay media and were pre-incubated for 30 min with either vehicle/saline, ketotifen (10 μM) or norketotifen (1.0; 10 or 100 μM). Following these preincubations, the white blood cell suspensions were stimulated for 16 hours with PHA, 5 μg/ml. The cell system supernatants were then harvested and stored frozen.

[7] = Water solubility; type: physicochemical
[8] = tested on: TNF-α; assay: PHA-induced release of TNF-α from human buffy coats; type: cell-based; conditions: PHA 5 μg/ml, 16 hours, inhibition
Description: as §1, §2

[9] = tested on: immune system; assay: Repeat-dose toxicology studies, signs of immune system suppression; type: in vivo; conditions: repeat-dose toxicology studies: hematology, clinical chemistry, histopathology, organ and body weight indicators
[10] = tested on: IL-1β; assay: PHA-induced release of IL-1β from human buffy coats; type: cell-based; conditions: PHA 5 μg/ml, 16 hours, inhibition
Description: as §1, §2

[11] = Lung/plasma distribution of norketotifen in rats; type: in vivo, SPD rats; conditions: for Kp: male, SPD, rat, lung/plasma, 20 mg/kg/day; for Lung Concentration / Plasma Concentration: rats
Description: Groups of male SPD rats (200-230 g) were administered racemic norketotifen hydrogen Fumarate 20 mg/kg/day (=14.4 mg/kg/day of the free base) for 10 consecutive days. Lung and plasma samples were collected and prepared and the concentrations of RS-norketotifen were determined using a qualified LC-MS-MS analytical method. LLQ (Lowest Level of Quantification) was <0.5 ng/ml.

[12] = Lung/plasma distribution of norketotifen in dogs; type: in vivo, Beagle dogs; conditions: for Post-dose Lung Concentration / Post-dose Plasma Concentration / Kp: dog; for Post-dose Lung Concentration / Post-dose Plasma Concentration: oral 8.0 mg/kg/day NK-FB for four days; for Kp: female, Beagle, lung/plasma, 11.46 mg/kg/day
Description: One group (N=3) of female Beagle dogs (8 to 10 kg/24 to 28 months) were administered racemic norketotifen hydrogen fumarate (RS-NK-HF) 11.46 mg/kg/day for 4 consecutive days. (11.46 mg of NK-HF is equal to 8.0 mg of the free base (RS-NK-FB).
Plasma samples were collected daily on Days 2, 3 and 4. The last blood samples were taken four hours after dosing on Day 4. Lung and plasma concentrations of norketotifen were determined using a qualified LC-MS-MS analytical method. LLQ was <0.5 ng/ml. Immediately after blood collection on Day 4, all animals were euthanized with an overdose of pentobarbital, administered intravenously, followed by exsanguination. Lung tissue samples (approximately 1 g each) were collected from each animal from the left and right pulmonary lobes, samples were trimmed and dried of any access blood using absorbent paper, weighed and then kept in conical tubes frozen on dry ice and stored at −80° C. pending analysis. Six samples from each animal (3 samples per side) were analyzed.

[13] = tested on: sedation; conditions: orally administered, humans; U.S. Pat. Nos. 9,138,431 and 9,345,697; cited from earlier work
[14] = tested on: Trichophyton rubrum; assay: Antimicrobial activity (MIC), Trichophyton rubrum; type: cell-based; conditions: Mold: Tr, MIC refers to lethal concentrations
[15] = tested on: IL-13; assay: PHA-induced release of IL-13 from human buffy coats; type: cell-based; conditions: PHA 5 μg/ml, 16 hours, inhibition
Description: as §1, §2

[16] = tested on: Moraxella catarrhalis; assay: Antimicrobial activity (MIC), Moraxella catarrhalis; type: cell-based; conditions: Bacteria: Mc, MIC refers to lethal concentrations
[17] = tested on: IL-8; assay: PHA-induced release of IL-8 from human buffy coats; type: cell-based; conditions: PHA 5 μg/ml, 16 hours, inhibition
Description: as §1, §2

[18] = Plasma concentration after sc infusion (follow-up study); type: in vivo; conditions: Sprague-Dawley, rat, 1 mg/kg/day, after sc infusion of RS-norketotifen for 5 days, rats
[19] = tested on: sedation; conditions: art-accepted mouse model of sedation; U.S. Pat. Nos. 7,226,934 and 7,557,128; cited from earlier work
[20] = tested on: IL-2; assay: PHA-induced release of IL-2 from human buffy coats; type: cell-based; conditions: PHA 5 μg/ml, 16 hours, inhibition
Description: as §1, §2

[21] = Dose Day 4, once daily oral 14.4 mg/kg free base
[22] = Dose Day 7, once daily oral 14.4 mg/kg free base
[23] = Last dose + 24 hrs, once daily oral 14.4 mg/kg free base for 10 days
[24] = Last dose, Day 10, once daily oral 14.4 mg/kg free base

In the case of `O=C1Cc2ccccc2C(=C2CCNCC2)c2ccsc21` (racemic) [norketotifen], the MIC [1] is reported as 500 µg/mL (≈ 1690 µM), the MIC [2] is reported as 1000 µg/mL (≈ 3390 µM) and the MIC [3] is reported as “about 0.25 mg/mL”. The MIC ([3]; Haemophilus, read-out: MIC) was 250 µg/mL (≈ 846 µM), the MIC [4] was 1000 µg/mL (≈ 3390 µM) and the MIC [5] was 500 µg/mL (≈ 1690 µM). For the same molecule, the MIC ([5]; Streptococcus pneumoniae, read-out: MIC) was 500 µg/mL (≈ 1690 µM), the “Effect on PHA-induced release of IL-4 (%)” value (shortened to “Effect … of IL-4 (%)”) ([6]; 1 uM) was 0.00% and the “Effect … of IL-4 (%)” value ([6]; 10 uM) was 14.32%. The “Effect … of IL-4 (%)” value ([6]; 100 uM) was 98.27^1%, the Water solubility [7] was “about 2%” and the solubility ([7]; water) was ~20 mg/mL (≈ 67700 µM). The “Effect on PHA-induced release of TNF-α (%)” value (“Effect … of TNF-α (%)” below) ([8]; 1 uM) was 45.57^2%, the “Effect … of TNF-α (%)” value ([8]; 10 uM) was 63.07^1% and the “Effect … of TNF-α (%)” value ([8]; 100 uM) was 95.68^1%. For the same molecule, the “Signs of immune system suppression” value [9] was “no signs of immune system suppression”, the “Effect on PHA-induced release of IL-1β (%)” value (shortened to “Effect … of IL-1β (%)”) ([10]; 1 uM) was 0.00% and the “Effect … of IL-1β (%)” value ([10]; 10 uM) was 16.20%. The “Effect … of IL-1β (%)” value ([10]; 100 uM) was 57.00^1%, the Kp ([11]; oral, Dose Day 4, read-out: Lung/Plasma Ratio in Rats) was 133 and the Kp ([11]; oral, Dose Day 7, read-out: Lung/Plasma Ratio in Rats) was 92. It also gave a Kp ([11]; oral, Last dose + 24 hrs, read-out: Lung/Plasma Ratio in Rats) of 107, a Kp ([11]; oral, Last dose, Day 10, read-out: Lung/Plasma Ratio in Rats) of 79 and a Kp ([11]; po, mean of the four study days, oral dosing, read-out: Lung/Plasma Ratio in Rats, Mean ± SEM) of 103. The “Lung/Plasma Ratio in Rats, Mean ± SEM” value ([11]; mean of the four study days, oral dosing) was 100, the “Lung/Plasma Ratio in Rats, Mean ± SEM” value ([11]; mean of the four study days, oral dosing, listed as NK) was 103 ± 11.6 and the “Lung/Plasma Ratio in Rats, Mean ± SEM” value ([11]; mean of the four study days, oral dosing, listed as RS-norketotifen) was ~100. The “Lung Concentration” value [11, 21] was 23612 ng/g, the “Plasma Concentration” value [11, 21] was 178 ng/mL and the “Lung Concentration” value [11, 22] was 25355 ng/g. For the same molecule, the “Plasma Concentration” value [11, 22] was 276 ng/mL, the “Lung Concentration” value [11, 23] was 890 ng/g and the “Plasma Concentration” value [11, 23] was 8.3 ng/mL. For the same molecule, the “Lung Concentration” value [11, 24] was 18171 ng/g, the “Plasma Concentration” value [11, 24] was 229 ng/mL and the “Post-dose Lung Concentration” value ([12]; animal 001, Day 4) was 23590 ng/g. For the same molecule, the “Post-dose Plasma Concentration” value ([12]; animal 001, Day 4) was 301 ng/mL, the “Post-dose Lung Concentration” value ([12]; animal 002, Day 4) was 79546 ng/g and the “Post-dose Plasma Concentration” value ([12]; animal 002, Day 4) was 1651 ng/mL. The “Post-dose Lung Concentration” value ([12]; animal 003, Day 4) was 61093 ng/g, the “Post-dose Plasma Concentration” value ([12]; animal 003, Day 4) was 733 ng/mL and the Kp ([12]; oral, animal 001, Day 4, read-out: Lung / Plasma Ratio in Dogs) was 78.4. For the same molecule, the Kp ([12]; oral, animal 002, Day 4, read-out: Lung / Plasma Ratio in Dogs) was 48.2, the Kp ([12]; oral, animal 003, Day 4, read-out: Lung / Plasma Ratio in Dogs) was 83.3 and the Kp ([12]; po, mean of three dogs, Day 4, once daily oral dosing, read-out: Lung / Plasma Ratio in Dogs, Mean ± SEM) was 70. For the same molecule, the “Lung / Plasma Ratio in Dogs, Mean ± SEM” value ([12]; mean of three dogs, Day 4, once daily oral dosing, listed as NK) was 70.0 ± 11.0, the Sedative side effects [13] was “free from sedative side effects” and the MIC [14] was 500 µg/mL (≈ 1690 µM). For the same molecule, the “Effect on PHA-induced release of IL-13 (%)” value (“Effect … of IL-13 (%)” for short) ([15]; 1 uM) was 0.00%, the “Effect … of IL-13 (%)” value ([15]; 10 uM) was 34.49^1% and the “Effect … of IL-13 (%)” value ([15]; 100 uM) was 74.25^1%. The MIC [16] was 250 µg/mL (≈ 846 µM), the MIC ([16]; Moraxella catarrhalis, read-out: MIC) was 250 µg/mL (≈ 846 µM) and the “Effect on PHA-induced release of IL-8 (%)” value (“Effect … of IL-8 (%)” below) ([17]; 1 uM) was 10.29^2%. For the same molecule, the “Effect … of IL-8 (%)” value ([17]; 10 uM) was 34.36^1%, the “Effect … of IL-8 (%)” value ([17]; 100 uM) was 78.29^1% and the concentration at 5 days [18] was 4 ± 0.24 ng/mL. For the same molecule, the Sedative effects [19] was “significant sedative effects”, the “Effect on PHA-induced release of IL-2 (%)” value (from here on “Effect … of IL-2 (%)”) ([20]; 1 uM) was 0.00% and the “Effect … of IL-2 (%)” value ([20]; 10 uM) was 46.63^1%. For the same molecule, the “Effect … of IL-2 (%)” value ([20]; 100 uM) was 93.47^1%.

Reference: patent publication US10959992B2, “Methods of treatment of asthma and COPD” (Bridge Pharma, Inc., priority 2019, dated 2021)
